Measured values published in patent US10781236B2, “Bacteriocin composition and method” (priority 2015, dated 2020).

Tests used:
[1] = system: Enterococcus avium LMGT 3465; assay: Relative MIC, inhibitory spectrum; format: cell-based; conditions: relative to L. lactis IL 1403 = 1
E. faecium LMGT 2876 = assay: Relative MIC, inhibitory spectrum; format: cell-based, Enterococcus faecium; conditions: relative to L. lactis IL 1403 = 1
[2] = system: Lactobacillus curvatus LMGT 2353; assay: Relative MIC, inhibitory spectrum; format: cell-based; conditions: relative to L. lactis IL 1403 = 1
L. curvatus LMGT 2355 = assay: Relative MIC, inhibitory spectrum; format: cell-based, Lactobacillus curvatus; conditions: relative to L. lactis IL 1403 = 1
L. lactis LMGT 2081 = assay: Relative MIC, inhibitory spectrum; format: cell-based, Lactococcus lactis; conditions: relative to L. lactis IL 1403 = 1
L. lactis LMGT 2705 = assay: Relative MIC, inhibitory spectrum; format: cell-based, Lactococcus lactis; conditions: relative to L. lactis IL 1403 = 1
[3] = system: Leuconostoc gelidium LMGT 2386; assay: Relative MIC, inhibitory spectrum; format: cell-based; conditions: relative to L. lactis IL 1403 = 1
[4] = system: Listeria innocua LMGT 2710; assay: Relative MIC, inhibitory spectrum; format: cell-based; conditions: relative to L. lactis IL 1403 = 1
[5] = system: Staphylococcus aureus LMGT 3022; assay: Relative MIC, inhibitory spectrum; format: cell-based; conditions: relative to L. lactis IL 1403 = 1
L. monocytogenes = assay: Antimicrobial activity against problematic bacteria; format: cell-based, Listeria monocytogenes
Procedure: (§1) To screen for bacteriocin producers with broad inhibition spectra (BIS), Lactococcus lactis, Lactobacillus sakei, Lactobacillus plantarum, Listeria innocua, and Staphylococcus aureus from the food and dairy environment were used as indicators in the first round of screening. The antimicrobial screening was performed using the agar diffusion bioassay as previously described (Holo et al., 1991, J. Bacteriol., 173, p 3879-3887). Briefly, indicator cells from overnight cultures were diluted 100-fold in 5 mL of BHI soft agar and plated out as a lawn on BHI agar plates. Potential bacteriocin producers at volumes of 3 μL were spotted on the indicator lawn and then incubated at appropriate temperatures for 24 h for cell growth and cell inhibition. Inhibition was detected as clear zones around the spotted cells.
(§2) As the antimicrobial activity of garvicin KS is relatively broad, we explored further its potential to kill a larger panel of important pathogens. The list contained 147 problematic or potentially problematic bacteria of species belonging to Listeria, Staphylococcus, Streptococcus and Enterococcus, isolated from food and clinical sources. In this assay, we compared the antimicrobial activity of garvicin KS with that of garvicin ML and nisin, the last one being known as a broad inhibition-spectrum bacteriocin (AIKhatib et al., 2014, PLOS One 9:e102246 doi:10.1371/joumal.pone.0102246). […]

Staph. Aureus = assay: as above; format: cell-based, Staphylococcus aureus
Procedure: as §1, §2

S. salivarius = assay: as above; format: cell-based, Streptococcus salivarius; conditions: clinical sources
Procedure: as §1, §2

E. faecalis = assay: as above; format: cell-based, Enterococcus faecalis
Procedure: as §1, §2

[6] = system: 147 problematic or potentially problematic bacteria of Listeria, Staphylococcus, Streptococcus and Enterococcus; assay: Antimicrobial activity against problematic bacteria, whole panel; format: cell-based; conditions: for number of sensitive strains / number of strains tested: Total
Procedure: as §1
As the antimicrobial activity of garvicin KS is relatively broad, we explored further its potential to kill a larger panel of important pathogens. The list contained 147 problematic or potentially problematic bacteria of species belonging to Listeria, Staphylococcus, Streptococcus and Enterococcus, isolated from food and clinical sources. In this assay, we compared the antimicrobial activity of garvicin KS with that of garvicin ML and nisin, the last one being known as a broad inhibition-spectrum bacteriocin (AIKhatib et al., 2014, PLOS One 9:e102246 doi:10.1371/joumal.pone.0102246). […] In all cases, garvicin KS was either equal or better than nisin, regardless of whether the isolates were from clinical or food environments, except for the activity toward clinical isolates of S. aureus where nisin appeared marginally better (24/25 for nisin and 23/25 for KS).

[7] = system: 53 strains of different genera in the Firmicutes family; assay: Inhibitory spectrum, whole panel of Table 3; format: cell-based; conditions: 53 strains of Table 3
Source text: A more extended comparison between the bacteriocin activity of L. garvieae KS 1546 (termed garvicin KS) and L. garvieae DCC 43 (garvicin ML producer) can also be seen in Table 3.

Substance: garvicin ML
- Relative MIC value [1]: ≤0.25
- Relative MIC value (E. faecium LMGT 2876): 64-128
- Relative MIC value [2]: 16
- Relative MIC value (L. curvatus LMGT 2355): 2-4
- Relative MIC value (L. lactis LMGT 2081): ≤0.25
- Relative MIC value (L. lactis LMGT 2705): ≤0.25
- Relative MIC value [3]: 32-64
- Relative MIC value [4]: 32
- Relative MIC value [5]: 512
- number of sensitive strains / number of strains tested (L. monocytogenes; clinical sources): 0/4
- number of sensitive strains / number of strains tested (L. monocytogenes; food sources): 0/20
- number of sensitive strains / number of strains tested (Staph. Aureus; clinical sources): 9/25
- number of sensitive strains / number of strains tested (Staph. Aureus; food sources): 4/28
- number of sensitive strains / number of strains tested (S. salivarius): 1/1
- number of sensitive strains / number of strains tested (E. faecalis; clinical sources): 0/2
- number of sensitive strains / number of strains tested (E. faecalis; food sources): 18/40
- portion of the 147 strains killed ([6]; 147 strains, clinical and food): 34.6%
- strains killed among the 147 strains tested ([6]; 147 strains, clinical and food): 51 strains
- number of sensitive strains / number of strains tested ([6]; clinical sources): 12/34
- number of sensitive strains / number of strains tested ([6]; food sources): 39/113
- number of sensitive strains (n) among 53 strains [7]: 39
- sensitive portion of 53 strains [7]: about 74%
